Measured values: ChEMBL document CHEMBL1909046, “DrugMatrix in vitro pharmacology data”

What was measured:
Thromboxane-A synthase = molecular target: T1, Thromboxane-A synthase (Homo sapiens, UniProt P24557); assay: biochemical; type: tissue-based, Platelet;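 also: enzyme inhibition assay with PGH2 supplied as substrate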
T1 sequence (P24557 whole entry): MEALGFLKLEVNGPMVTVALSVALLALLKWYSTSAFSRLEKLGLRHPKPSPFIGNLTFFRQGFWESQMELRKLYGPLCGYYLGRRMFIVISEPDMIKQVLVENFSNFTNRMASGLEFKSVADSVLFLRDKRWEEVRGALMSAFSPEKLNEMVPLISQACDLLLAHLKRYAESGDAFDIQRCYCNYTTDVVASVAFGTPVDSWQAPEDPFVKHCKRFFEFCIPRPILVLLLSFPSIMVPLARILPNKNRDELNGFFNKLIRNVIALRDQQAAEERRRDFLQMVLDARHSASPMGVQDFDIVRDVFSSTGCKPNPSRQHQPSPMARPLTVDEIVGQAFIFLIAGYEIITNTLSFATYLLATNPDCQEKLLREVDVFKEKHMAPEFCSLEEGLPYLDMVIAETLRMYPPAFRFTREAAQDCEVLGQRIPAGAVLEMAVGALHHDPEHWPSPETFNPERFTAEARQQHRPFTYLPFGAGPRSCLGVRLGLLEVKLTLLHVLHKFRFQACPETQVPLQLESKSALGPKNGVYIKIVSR

Nitric oxide synthase 1 = Nitric oxide synthase 1 (Rattus norvegicus, UniProt P29476); type: tissue-based, Cerebellum
Chain of Nitric oxide synthase 1 (P29476 whole entry): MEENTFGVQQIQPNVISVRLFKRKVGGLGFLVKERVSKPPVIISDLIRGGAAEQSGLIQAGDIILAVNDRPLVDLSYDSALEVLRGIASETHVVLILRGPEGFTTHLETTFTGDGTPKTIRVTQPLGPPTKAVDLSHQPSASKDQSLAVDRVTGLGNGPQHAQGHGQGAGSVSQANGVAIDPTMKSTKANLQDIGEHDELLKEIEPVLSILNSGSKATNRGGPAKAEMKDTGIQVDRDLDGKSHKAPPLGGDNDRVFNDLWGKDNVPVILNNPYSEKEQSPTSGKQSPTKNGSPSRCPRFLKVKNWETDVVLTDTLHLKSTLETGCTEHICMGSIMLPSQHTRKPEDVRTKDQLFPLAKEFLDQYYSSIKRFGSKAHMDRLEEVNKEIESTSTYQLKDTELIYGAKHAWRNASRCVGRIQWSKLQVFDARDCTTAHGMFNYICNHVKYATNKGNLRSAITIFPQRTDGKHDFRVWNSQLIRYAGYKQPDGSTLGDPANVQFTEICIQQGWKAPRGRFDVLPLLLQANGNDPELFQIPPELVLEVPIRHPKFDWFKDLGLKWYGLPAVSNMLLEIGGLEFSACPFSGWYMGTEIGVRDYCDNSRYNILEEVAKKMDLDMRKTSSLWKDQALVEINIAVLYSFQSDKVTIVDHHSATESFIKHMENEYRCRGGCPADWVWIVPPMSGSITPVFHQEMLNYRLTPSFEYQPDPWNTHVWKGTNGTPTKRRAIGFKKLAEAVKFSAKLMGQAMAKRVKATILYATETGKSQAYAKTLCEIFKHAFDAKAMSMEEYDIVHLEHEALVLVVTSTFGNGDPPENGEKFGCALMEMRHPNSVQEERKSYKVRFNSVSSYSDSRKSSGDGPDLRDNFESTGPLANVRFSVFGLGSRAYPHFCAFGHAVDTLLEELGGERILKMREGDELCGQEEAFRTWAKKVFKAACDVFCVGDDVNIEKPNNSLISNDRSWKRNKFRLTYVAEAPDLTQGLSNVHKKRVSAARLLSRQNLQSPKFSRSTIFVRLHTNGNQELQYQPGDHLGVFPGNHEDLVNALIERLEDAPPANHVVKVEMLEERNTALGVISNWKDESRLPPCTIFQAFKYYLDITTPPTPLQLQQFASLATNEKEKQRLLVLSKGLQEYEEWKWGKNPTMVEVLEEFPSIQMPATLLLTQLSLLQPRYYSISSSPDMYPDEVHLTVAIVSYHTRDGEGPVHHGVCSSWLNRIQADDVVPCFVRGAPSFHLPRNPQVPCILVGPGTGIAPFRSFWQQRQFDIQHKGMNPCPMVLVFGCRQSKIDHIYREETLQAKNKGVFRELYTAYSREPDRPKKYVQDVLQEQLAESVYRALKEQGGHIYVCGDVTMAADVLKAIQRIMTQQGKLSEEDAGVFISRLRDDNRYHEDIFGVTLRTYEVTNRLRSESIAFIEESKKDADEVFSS

[1] = molecular target: T2, Nitric oxide synthase, inducible (Mus musculus, UniProt P29477); design: species or system Escherichia coli;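 also: inhibition of iNOS enzyme activity measured with L-arginine as substrate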
T2 sequence (P29477 whole entry): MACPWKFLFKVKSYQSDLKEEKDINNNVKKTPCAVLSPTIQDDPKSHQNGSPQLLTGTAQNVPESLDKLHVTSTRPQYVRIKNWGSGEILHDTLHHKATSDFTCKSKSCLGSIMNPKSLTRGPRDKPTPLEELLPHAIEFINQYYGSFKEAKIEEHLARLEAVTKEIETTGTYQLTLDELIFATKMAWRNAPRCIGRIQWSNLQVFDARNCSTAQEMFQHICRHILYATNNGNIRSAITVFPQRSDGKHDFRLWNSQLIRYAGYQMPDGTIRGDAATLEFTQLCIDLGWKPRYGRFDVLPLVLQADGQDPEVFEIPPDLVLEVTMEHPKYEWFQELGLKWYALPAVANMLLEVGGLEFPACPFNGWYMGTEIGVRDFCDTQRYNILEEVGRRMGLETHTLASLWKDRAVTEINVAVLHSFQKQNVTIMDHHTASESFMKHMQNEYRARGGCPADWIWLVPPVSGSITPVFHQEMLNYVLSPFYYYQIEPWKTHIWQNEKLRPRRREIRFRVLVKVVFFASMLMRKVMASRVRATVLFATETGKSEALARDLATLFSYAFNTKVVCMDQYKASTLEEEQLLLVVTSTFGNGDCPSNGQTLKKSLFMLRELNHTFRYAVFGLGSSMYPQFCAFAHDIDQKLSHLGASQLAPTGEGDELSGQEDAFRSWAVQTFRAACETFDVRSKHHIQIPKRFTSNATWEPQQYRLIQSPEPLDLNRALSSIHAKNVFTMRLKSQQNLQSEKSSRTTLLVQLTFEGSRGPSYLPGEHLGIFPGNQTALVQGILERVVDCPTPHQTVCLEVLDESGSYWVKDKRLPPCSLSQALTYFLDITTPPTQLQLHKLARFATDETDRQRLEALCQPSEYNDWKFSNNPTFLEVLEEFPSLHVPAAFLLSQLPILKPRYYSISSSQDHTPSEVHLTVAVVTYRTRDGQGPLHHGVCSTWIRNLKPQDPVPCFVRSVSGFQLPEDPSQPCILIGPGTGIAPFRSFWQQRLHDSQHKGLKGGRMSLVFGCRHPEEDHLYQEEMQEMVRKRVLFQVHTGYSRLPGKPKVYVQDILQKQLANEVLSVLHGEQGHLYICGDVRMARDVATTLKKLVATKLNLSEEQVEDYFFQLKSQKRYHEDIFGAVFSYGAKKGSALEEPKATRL

[2] = molecular target: T3, Receptor-type tyrosine-protein phosphatase C (Homo sapiens, UniProt P08575); design: species or system Escherichia coli;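 also: inhibition of CD45 enzyme activity measured using DiFMUP as substrate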
T3 sequence (P08575 whole entry): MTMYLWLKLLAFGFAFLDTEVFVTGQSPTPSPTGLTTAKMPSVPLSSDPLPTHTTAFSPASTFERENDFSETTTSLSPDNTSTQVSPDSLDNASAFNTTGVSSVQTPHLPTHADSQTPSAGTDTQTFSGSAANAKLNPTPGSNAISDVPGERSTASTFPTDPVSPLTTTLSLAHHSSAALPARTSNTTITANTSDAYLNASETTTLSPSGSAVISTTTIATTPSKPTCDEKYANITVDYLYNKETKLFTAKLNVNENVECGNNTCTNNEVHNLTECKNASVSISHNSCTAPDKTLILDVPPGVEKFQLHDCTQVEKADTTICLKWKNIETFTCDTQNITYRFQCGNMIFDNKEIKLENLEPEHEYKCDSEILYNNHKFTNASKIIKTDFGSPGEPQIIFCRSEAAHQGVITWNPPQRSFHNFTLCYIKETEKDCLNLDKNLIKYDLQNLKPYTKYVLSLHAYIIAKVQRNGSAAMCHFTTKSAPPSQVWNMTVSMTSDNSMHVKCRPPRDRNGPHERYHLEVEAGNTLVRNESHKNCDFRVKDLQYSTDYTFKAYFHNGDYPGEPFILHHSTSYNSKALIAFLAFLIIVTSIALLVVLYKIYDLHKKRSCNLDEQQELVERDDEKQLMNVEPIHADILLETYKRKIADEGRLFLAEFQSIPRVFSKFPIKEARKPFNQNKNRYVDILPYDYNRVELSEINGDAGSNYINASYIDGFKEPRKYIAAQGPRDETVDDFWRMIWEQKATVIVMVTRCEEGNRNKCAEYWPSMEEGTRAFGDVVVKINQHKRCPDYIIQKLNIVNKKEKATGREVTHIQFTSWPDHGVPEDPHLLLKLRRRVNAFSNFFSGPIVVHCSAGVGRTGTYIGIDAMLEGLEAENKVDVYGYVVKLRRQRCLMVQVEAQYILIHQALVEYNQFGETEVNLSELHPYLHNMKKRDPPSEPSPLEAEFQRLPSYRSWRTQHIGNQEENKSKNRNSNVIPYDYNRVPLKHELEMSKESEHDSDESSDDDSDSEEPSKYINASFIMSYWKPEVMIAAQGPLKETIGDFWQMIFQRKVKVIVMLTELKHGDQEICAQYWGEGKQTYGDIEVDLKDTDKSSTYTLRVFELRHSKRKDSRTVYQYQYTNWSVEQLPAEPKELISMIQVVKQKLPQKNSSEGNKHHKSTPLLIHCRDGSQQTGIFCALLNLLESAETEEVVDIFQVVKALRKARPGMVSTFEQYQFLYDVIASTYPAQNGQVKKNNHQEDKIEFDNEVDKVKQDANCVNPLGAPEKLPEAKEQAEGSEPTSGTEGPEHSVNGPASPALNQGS
Also: in other assays of this panel Not Active means under 50% inhibition at 10 µM.

| Compound | IC50 (Thromboxane-A synthase; platelet) | IC50 (Nitric oxide synthase 1) | IC50 [1] | IC50 [2] | IC50 (Thromboxane-A synthase; read-out: IC50) | Ki (Thromboxane-A synthase; platelet) | Ki (Nitric oxide synthase 1) | Ki [1] | Ki [2] |
| --- | --- | --- | --- | --- | --- | --- | --- | --- | --- |
| COc1nc(C)nc(Cl)c1NC1=NCCN1 [MOXONIDINE] | Not Active | Not Active | Not Active | Not Active |  |  |  |  |  |
| N[C@@H](Cc1ccc(O)c(O)c1)C(=O)O [LEVODOPA] | Not Active | Not Active | Not Active | Not Active |  |  |  |  |  |
| OCCN(CCO)c1nc(N2CCCCC2)c2nc(N(CCO)CCO)nc(N3CCCCC3)c2n1 [DIPYRIDAMOLE] | Not Active | Not Active | Not Active | Not Active |  |  |  |  |  |
| Cn1ccnc1S [METHIMAZOLE] | Not Active | Not Active | Not Active | Not Active |  |  |  |  |  |
| CC(=O)[C@@]1(O)CC[C@H]2[C@@H]3C[C@H](C)C4=CC(=O)CC[C@]4(C)[C@H]3CC[C@@]21C | Not Active | Not Active | Not Active | Not Active |  |  |  |  |  |
| C=CCC1(C(C)CCC)C(=O)NC(=O)NC1=O (stereo unspecified) [SECOBARBITAL] | Not Active | Not Active | Not Active | Not Active |  |  |  |  |  |
| C[C@@H]1CN(c2c(F)c(N)c3c(=O)c(C(=O)O)cn(C4CC4)c3c2F)C[C@H](C)N1 [SPARFLOXACIN] | Not Active | Not Active | Not Active | Not Active |  |  |  |  |  |
| O=c1ncn2nc(Sc3ccc(F)cc3F)ccc2c1-c1c(Cl)cccc1Cl [NEFLAMAPIMOD] | Not Active | Not Active | Not Active | Not Active |  |  |  |  |  |
| Nc1c2c(nc3ccccc13)CCCC2 [TACRINE] | Not Active | Not Active | Not Active | Not Active |  |  |  |  |  |
| CO[C@H]1/C=C/O[C@@]2(C)Oc3c(C)c(O)c4c(O)c(c(/C=N/N5CCN(C)CC5)c(O)c4c3C2=O)NC(=O)/C(C)=C\C=C\[C@H](C)[C@H](O)[C@@H](C)[C@@H](O)[C@@H](C)[C@H](OC(C)=O)[C@@H]1C [RIFAMPIN] | Not Active | Not Active | Not Active | Not Active |  |  |  |  |  |
| CCCCc1oc2ccccc2c1C(=O)c1cc(I)c(OCCN(CC)CC)c(I)c1 [AMIODARONE] | Not Active | Not Active | Not Active | Not Active |  |  |  |  |  |
| CCOC(=O)N1CCC(=C2c3ccc(Cl)cc3CCc3cccnc32)CC1 [LORATADINE] | Not Active | Not Active | Not Active | Not Active |  |  |  |  |  |
| N[C@@H](Cc1ccc(N(CCCl)CCCl)cc1)C(=O)O | Not Active | Not Active | Not Active | Not Active |  |  |  |  |  |
| Cc1noc(NS(=O)(=O)c2ccc(N)cc2)c1C [SULFISOXAZOLE] | Not Active | Not Active | Not Active | Not Active |  |  |  |  |  |
| N[C@@H](Cc1cc(I)c(Oc2ccc(O)c(I)c2)c(I)c1)C(=O)O [LIOTHYRONINE] | Not Active | Not Active | Not Active | Not Active |  |  |  |  |  |
| c1ccc([C@H]2CN3CCSC3=N2)cc1 [LEVAMISOLE] | Not Active | Not Active | Not Active | Not Active |  |  |  |  |  |
| CC1(C)O[C@@H]2C[C@H]3[C@@H]4CCC5=CC(=O)C=C[C@]5(C)[C@@]4(F)[C@@H](O)C[C@]3(C)[C@]2(C(=O)CO)O1 [TRIAMCINOLONE ACETONIDE] | Not Active | Not Active | Not Active | Not Active |  |  |  |  |  |
| N#CC(C#N)=Cc1ccc(O)c(O)c1 [TYRPHOSTIN 23] | Not Active | Not Active | Not Active | Not Active |  |  |  |  |  |
| Nc1nc2nc[nH]c2c(=S)[nH]1 [THIOGUANINE] | Not Active | Not Active | Not Active | Not Active |  |  |  |  |  |
| NS(=O)(=O)c1cc2c(cc1Cl)NC(C(Cl)Cl)NS2(=O)=O (stereo unspecified) [TRICHLORMETHIAZIDE] | Not Active | Not Active | Not Active | Not Active |  |  |  |  |  |
| CC(C)N1CCN(c2ccc(OCC3COC(Cn4cncn4)(c4ccc(Cl)cc4Cl)O3)cc2)CC1 (stereo unspecified) [TERCONAZOLE] | Not Active | Not Active | Not Active | Not Active |  |  |  |  |  |
| CN1CCN(CCCN2c3ccccc3Sc3ccc(Cl)cc32)CC1 [PROCHLORPERAZINE] | Not Active | Not Active | Not Active | Not Active |  |  |  |  |  |
| CC(C)(C)NC(=O)[C@@H]1C[C@@H]2CCCC[C@@H]2CN1C[C@@H](O)[C@H](Cc1ccccc1)NC(=O)[C@H](CC(N)=O)NC(=O)c1ccc2ccccc2n1 |  | Not Active | Not Active | Not Active | 2180 nM |  |  |  |  |
| SODIUM NITROPRUSSIDE | Not Active | Not Active | Not Active | Not Active |  | Not Active | Not Active | Not Active | Not Active |
| NC[C@H]1CC[C@H](C(=O)O)CC1 [TRANEXAMIC ACID] | Not Active | Not Active | Not Active | Not Active |  |  |  |  |  |
| CC/C(=C(\c1ccccc1)c1ccc(OCCN(C)C)cc1)c1ccccc1 [TAMOXIFEN] |  | Not Active | Not Active | Not Active | 916 nM |  |  |  |  |
| N[C@@H]1[C@H]2CN(c3nc4c(cc3F)c(=O)c(C(=O)O)cn4-c3ccc(F)cc3F)C[C@@H]12 [TROVAFLOXACIN] |  | Not Active | Not Active | Not Active | 4020 nM |  |  |  |  |
| CC[C@@H](CO)NC(=O)[C@@H]1C=C2c3cccc4[nH]cc(c34)C[C@H]2N(C)C1 [METHYLERGONOVINE] | Not Active | Not Active | Not Active | Not Active |  |  |  |  |  |
